Source: patent US10287269B2, “Pyrazolyl pyrimidinone compounds as PDE2 inhibitors” (Merck Sharp & Dohme Corp., priority 2015, dated 2019)
Read-outs that look alike come from different tables or passages of the source.

Target: T1, Rhesus PDE2A3 (Macaca mulatta, UniProt B3VTJ2)
T1 construct: made in house; host or cells: AD293 cells, transient transfection, pcDNA3.3-TOPO; lysate supernatant used as enzyme
T1 sequence (B3VTJ2 1-941): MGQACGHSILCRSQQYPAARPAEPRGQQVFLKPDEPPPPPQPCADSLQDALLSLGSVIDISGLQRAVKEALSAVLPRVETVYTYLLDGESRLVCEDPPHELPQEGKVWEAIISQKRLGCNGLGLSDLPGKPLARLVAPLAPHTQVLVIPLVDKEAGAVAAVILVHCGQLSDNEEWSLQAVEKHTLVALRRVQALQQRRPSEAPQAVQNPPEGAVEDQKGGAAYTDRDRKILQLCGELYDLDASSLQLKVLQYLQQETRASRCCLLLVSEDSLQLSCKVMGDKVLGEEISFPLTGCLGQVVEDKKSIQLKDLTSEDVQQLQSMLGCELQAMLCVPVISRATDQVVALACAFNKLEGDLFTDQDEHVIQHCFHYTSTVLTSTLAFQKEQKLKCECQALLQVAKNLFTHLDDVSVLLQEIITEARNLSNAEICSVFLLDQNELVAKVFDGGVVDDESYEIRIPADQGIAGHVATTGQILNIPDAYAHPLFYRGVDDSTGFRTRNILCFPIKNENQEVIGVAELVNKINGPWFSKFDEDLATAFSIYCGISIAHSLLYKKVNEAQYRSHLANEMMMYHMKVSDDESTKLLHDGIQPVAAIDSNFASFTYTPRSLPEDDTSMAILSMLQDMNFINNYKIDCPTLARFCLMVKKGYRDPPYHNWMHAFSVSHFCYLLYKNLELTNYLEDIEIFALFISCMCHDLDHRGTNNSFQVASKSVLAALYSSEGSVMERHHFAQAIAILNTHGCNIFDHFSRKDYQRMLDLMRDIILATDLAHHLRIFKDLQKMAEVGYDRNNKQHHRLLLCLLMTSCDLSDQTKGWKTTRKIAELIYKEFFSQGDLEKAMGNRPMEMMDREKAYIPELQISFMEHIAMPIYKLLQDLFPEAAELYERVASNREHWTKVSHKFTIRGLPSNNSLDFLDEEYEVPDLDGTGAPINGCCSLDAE
Test: PDE2 fluorescence polarization (IMAP FP) inhibition assay, rhesus enzyme
Format: biochemical, rhesus macaque
Method in brief: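 Lysate of AD293 cells transiently expressing rhesus PDE2A3, diluted for ~20% substrate conversion, with 50 nM FAM-cAMP and 1 uM cGMP activator in pH 7.2 Tris/MgCl2 buffer, 60 min at room temperature.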

[1] = Lab A, read-out: Rhesus PDE2 Ki (nM) Lab A
[2] = Lab B, read-out: Rhesus PDE2 Ki (nM) Lab B

Ki [1] [nM] | Ki [2] [nM] | SMILES
 | 7.2 | Cc1nc(-n2cc(C(C)c3ccc(C(F)(F)F)cc3F)cn2)cc(=O)[nH]1 (single isomer, unassigned) [Example 52, (R)- or (S)-6-(4-(1-(2-fluoro-4-(trifluoromethyl)phenyl)ethyl)-1H-pyrazol-1-yl)-2-methylpyrimidin-4(3H)-one]
 | 64.5 | Cc1nc(-n2cc(C(C)c3ccc(C(F)(F)F)cc3F)cn2)cc(=O)[nH]1 (single isomer, unassigned) [Example 53, (S)- or (R)-6-(4-(1-(2-fluoro-4-(trifluoromethyl)phenyl)ethyl)-1H-pyrazol-1-yl)-2-methylpyrimidin-4(3H)-one]
13.1 | 13 | Cc1nc(-c2cnn(C(C)c3ccc(C(F)(F)F)cc3C)c2)cc(=O)[nH]1 (single isomer, unassigned) [Example 57, (S)- or (R)-2-methyl-6-(1-(1-(2-methyl-4-(trifluoromethyl)phenyl)ethyl)-1H-pyrazol-4-yl)pyrimidin-4(3H)-one]
3.6 | 2.4 | COc1ccc(Cc2nc(-c3cnn(C(C)c4ccc(C(F)(F)F)cc4)c3)cc(=O)[nH]2)cc1OC (single isomer, unassigned) [Example 60, (R)- or (S)-2-(3,4-dimethoxybenzyl)-6-(1-(1-4-(trifluoromethyl)phenyl)ethyl)-1H-pyrazol-4-yl)pyrimidin-4(3H)-one]
2 | 1.8 | COc1ccc(Cc2nc(-c3cnn(C(C)c4ccc(C(F)(F)F)cc4)c3)cc(=O)[nH]2)cc1OC (single isomer, unassigned) [Example 61, (S)- or (R)-2-(3,4-dimethoxybenzyl)-6-(1-(1-(4-(trifluoromethyl)phenyl)ethyl)-1H-pyrazol-4-yl)pyrimidin-4(3H)-one]
 | 143 | Cc1nc(-c2cnn(C(C)c3ccc(S(F)(F)(F)(F)F)cc3)c2)cc(=O)[nH]1 (single isomer, unassigned) [Example 62, (R)- or (S)-2-methyl-6-(1-(1-(4-(pentafluorosulfanyl)phenyl)ethyl)-1H-pyrazol-4-yl)pyrimidin-4(3H)-one]
 | 99.3 | Cc1nc(-c2cnn(C(C)c3ccc(S(F)(F)(F)(F)F)cc3)c2)cc(=O)[nH]1 (single isomer, unassigned) [Example 63, (S)- or (R)-2-methyl-6-(1-(1-(4-(pentafluorosulfanyl)phenyl)ethyl)-1H-pyrazol-4-yl)pyrimidin-4(3H)-one]
7.2 | 3.5 | COc1ccc(Cc2nc(-c3cnn(C(C)c4ccc(S(F)(F)(F)(F)F)cc4)c3)cc(=O)[nH]2)cc1OC (single isomer, unassigned) [Example 64, (R)- or (S)-2-(3,4-dimethoxybenzyl)-6-(1-(1-(4-(pentafluorosulfanyl)phenyl)ethyl)-1H-pyrazol-4-yl)pyrimidin-4(3H)-one]
22 | 9.9 | COc1ccc(Cc2nc(-c3cnn(C(C)c4ccc(S(F)(F)(F)(F)F)cc4)c3)cc(=O)[nH]2)cc1OC (single isomer, unassigned) [Example 65, (S)- or (R)-2-(3,4-dimethoxybenzyl)-6-(1-(1-(4-(pentafluorosulfanyl)phenyl)ethyl)-1H-pyrazol-4-yl)pyrimidin-4(3H)-one 4(3H)-one]
 | 0.8 | COc1ccc(Cc2nc(-c3cnn(C(C)c4ccc(C(F)(F)F)cc4F)c3)cc(=O)[nH]2)cc1OC (single isomer, unassigned) [Example 66, (R)- or (S)-2-(3,4-dimethoxybenzyl)-6-(1-(1-(2-fluoro-4-(trifluoromethyl)phenyl)ethyl)-1H-pyrazol-4-yl)pyrimidin-4(3H)-one]
0.2 | 0.1 | COc1ccc(Cc2nc(-c3cnn(C(C)c4ccc(C(F)(F)F)cc4F)c3)cc(=O)[nH]2)cc1OC (single isomer, unassigned) [Example 67]
 | 542 | Cc1nc(-c2ccn(C(C)c3ccc(C(F)(F)F)cc3)n2)cc(=O)[nH]1 (single isomer, unassigned) [Example 77, (R)- or (S)-2-methyl-6-(1-(1-(4-(trifluoromethyl)phenyl)ethyl)-1H-pyrazol-3-yl)pyrimidin-4(3H)-one]
 | 318 | Cc1nc(-c2ccn(C(C)c3ccc(C(F)(F)F)cc3)n2)cc(=O)[nH]1 (single isomer, unassigned) [Example 78, (S)- or (R)-2-methyl-6-(1-{(1R)-1-[4-(trifluoromethyl)phenyl]ethyl}-1H-pyrazol-3-yl)pyrimidin-4(3H)-one]
 | 232 | Cc1nc(-c2cnn(C(C)c3ccc(C(F)(F)F)cc3)c2C)cc(=O)[nH]1 (single isomer, unassigned) [Example 81, (R)- or (S)-2-methyl-6-(5-methyl-1-(1-(4-(trifluoromethyl)phenyl)ethyl)-1H-pyrazol-4-yl)pyrimidin-4(3H)-one]

The next lines start with the compound.

SMILES | Ki [1] [nM] | Ki [2] [nM]
COc1cc(C(F)(F)F)ccc1[C@@H](C)n1cc(-c2cc(=O)[nH]c(C)n2)cn1 (single isomer, unassigned) [Example 2] | 43.9 | 35.3
Cc1nc(-n2cc([C@H](C)c3ccc(C(F)(F)F)cc3)cn2)cc(=O)[nH]1 (single isomer, unassigned) [Example 3] |  | 93
Cc1nc(-n2cc([C@H](C)c3ccc(C(F)(F)F)cc3)cn2)cc(=O)[nH]1 (single isomer, unassigned) [Example 4] |  | 29.5
Cc1nc(-n2ccc([C@H](C)c3ccc(C(F)(F)F)cc3)n2)cc(=O)[nH]1 (single isomer, unassigned) [Example 5] |  | 285
Cc1nc(-n2ccc([C@H](C)c3ccc(C(F)(F)F)cc3)n2)cc(=O)[nH]1 (single isomer, unassigned) [Example 6] |  | 466
Cc1nc(-n2cc([C@](C)(O)c3ccc(C(F)(F)F)cc3F)cn2)cc(=O)[nH]1 (single isomer, unassigned) [Example 15] |  | 15.6
Cc1nc(-n2cc([C@](C)(O)c3ccc(C(F)(F)F)cc3F)cn2)cc(=O)[nH]1 (single isomer, unassigned) [Example 16] |  | 75.8
Cc1nc(-n2cc([C@H](CO)c3ccc(C(F)(F)F)cc3F)cn2)cc(=O)[nH]1 (single isomer, unassigned) [Example 19] |  | 105
Cc1nc(-n2cc([C@H](CO)c3ccc(C(F)(F)F)cc3F)cn2)cc(=O)[nH]1 (single isomer, unassigned) [Example 20] |  | 18.2
Cc1nc(-n2cc([C@]3(c4ccc(C(F)(F)F)cc4)CCCO3)cn2)cc(=O)[nH]1 (single isomer, unassigned) [Example 21] |  | 213
Cc1nc(-n2cc([C@]3(c4ccc(C(F)(F)F)cc4)CCCO3)cn2)cc(=O)[nH]1 (single isomer, unassigned) [Example 22] |  | 41.9
Cc1nc(-c2cc([C@H](C)c3ccc(C(F)(F)F)cc3)[nH]n2)cc(=O)[nH]1 (single isomer, unassigned) [Example 23] |  | 29.3
Cc1nc(-c2cc([C@H](C)c3ccc(C(F)(F)F)cc3)[nH]n2)cc(=O)[nH]1 (single isomer, unassigned) [Example 24] |  | 154
Cc1nc(-n2cc(C3(C)OCc4cc(C(F)(F)F)ccc43)cn2)cc(=O)[nH]1 (single isomer, unassigned) [Example 27] |  | 98
Cc1nc(-n2cc(C3(C)OCc4cc(C(F)(F)F)ccc43)cn2)cc(=O)[nH]1 (single isomer, unassigned) [Example 28] |  | 94.5
